Data taken from US9381245B2, “Methods for inhibiting osteolysis” (New York University, priority 2012, dated 2016).
Entries after “also recorded” stand apart in the source; their conditions may differ.

What was measured:
[1] = tested on: bone marrow cells induced to differentiate into osteoclasts; assay: Osteoclast differentiation of bone marrow cells with RANKL and M-CSF (TRAP+ osteoclasts); type: cell-based, mice
Procedure: (§1) A.) Bone marrow cells from WT and radiation chimeric netrin^−/− bone marrow mice were isolated and induced to differentiate into osteoclasts by incubation with RANKL and M-CSF. […] Cells from 5 different mice repeated in duplicate. […] A2A receptor stimulation reduces Unc5b, but not DCC, expression. Representative of 2 experiments. C. Bone mineral density (BMD) determined by Pixamouse small animal Dexa scanner. WT mice and Netrin1 KO mice are chimeras generated by infusion of either normal or netrin-1 deficient fetal liver into lethally irradiated congenic C57Black/6 mice. BMD was measured 18 weeks after transplant. Shown are the results of determinations on 5 mice in each group. […] Representative of 5 different mice with each treatment. E. Soft tissue from patients stained for semaphorin 4D (original magnification 800×). On the left is soft tissue obtained at the time of hip replacement (Representative of 14). […] On the right is tissue obtained at time of prosthesis revision (representative of 12).
Consistent with this observation it was shown that radiation chimeras with netrin-1^−/− replacement bone marrow have increased bone mineral density, as measured by Dexa scan (FIG. 4). […]

[2] = tested on: osteoprotegerin; assay: Osteoprotegerin staining of calvarium in murine model of wear particle-induced osteolysis; type: in vivo, mice; settings: wear particles 4 weeks; saline containing CGS21680 1 μM
Procedure: (§2) A. Shown are representative sections (from 10 different mice) of mouse calvarium after formation of an air pouch alone (sham) or after formation of an air pouch and exposure to wear particles for 4 weeks in the presence of saline or saline containing CGS21680 (1 μM), as we have previously described (Mediero, et al., Sci Transl Med, 2012. 4(135): 135-65). Dark brown staining is positive. B. RNA was isolated from normal human osteoblasts (Alizarin Red+/Alkaline Phosphatase+ cells) after differentiation from normal marrow cells in the presence or absence of CGS21680 (1 μM). Real time RT-PCR was carried out for RANKL and normalized to GAPDH. Shown are mean (+/−SD) results of two different samples carried out in duplicate.

[3] = tested on: Unc5b; assay: Western blot of Unc5b in RAW264.7 cells differentiating to osteoclasts; type: cell-based, murine; settings: CGS21680 1 μM
Procedure: as §1

[4] = tested on: RANKL; assay: RANKL staining of calvarium in murine model of wear particle-induced osteolysis; type: in vivo, mice; settings: wear particles 4 weeks; saline containing CGS21680 1 μM
Procedure: as §2

[5] = tested on: RANKL; assay: RANKL real time RT-PCR in normal human osteoblasts differentiated from marrow cells; type: cell-based; settings: CGS21680 1 μM; normalized to GAPDH
Procedure: as §2

[6] = tested on: RANK; assay: RANK staining of calvarium in murine model of wear particle-induced osteolysis; type: in vivo, mice; settings: wear particles 4 weeks; saline containing CGS21680 1 μM
Procedure: as §2

[7] = tested on: netrin-1; assay: Western blot of netrin-1 in supernate of RAW264.7 cells differentiating to osteoclasts; type: cell-based, murine; settings: CGS21680 1 μM, RANKL and M-CSF
Procedure: as §1

[8] = tested on: sema4D-expressing cells; assay: Sema4D staining of calvarium in murine model of wear particle-induced osteolysis; type: in vivo; settings: wear particle-treated mice; immunostaining
Procedure: A.) Total cell lysates from primary murine bone marrow cells alone (basal) or after osteoclast differentiation in the presence of saline, CGS21680 (1 μM) with/without ZM241385 (1 μM) were subject to Western Blot detection of sema4D. Shown is a representative experiment of 3. B.) RAW264.7 osteoclasts, infected with a lentiviral vector expressing either shRNA for the catalytic subunit of PKA, scrambled shRNA, or primary murine bone marrow cells were cultured in the presence of saline (Black line) or CGS21680 (1 μM, Red Line) with/without ZM241385 (1 μM, Blue Line) for the time periods indicated before harvest of the cells, collection of RNA and real time RTPCR. Results represent the means (±SEM) of 5 separate determinations. C. Calvarium from sham or wear particle-treated wild type (C57B1/6) mice or adenosine A2A receptor knockout mice (C57B1/6 background) were stained for sema4D. D. Soft tissue from patients stained for semaphorin 4D (original magnification 800×). On the left is soft tissue obtained at the time of joint replacement (Representative of 14). On the right is tissue obtained at time of prosthesis revision (representative of 12). […] In this model ultra high molecular weight polyethylene particles (UHMWPE) are injected into an air pouch overlying the calvaria and the area of bone resorption is measured. […]

[9] = tested on: netrin-1; assay: Netrin-1 expression in inflammatory infiltrate in wear particle-induced osteolysis; type: in vivo; settings: wear particle-induced osteolysis in mice
Procedure: as §1
Staining for netrin-1 was carried out in collaboration with Dr. Kathryn Moore's laboratory, an internationally known expert on the role of this protein in macrophage function in atherosclerosis (van Gils, et al., Nat Immunol, 2012, 13(2): 136-43). […]

[10] = tested on: wear particle-induced osteolysis; assay: New bone formation at sites of wear particle-induced osteolysis (Xenolight Rediject Bone Probe 680, IVIS); type: in vivo, mice; settings: daily injections of CGS21680 into air pouch over calvarium
Procedure: Mice (C57B1/6) underwent formation of an air pouch over the calvarium and then exposed to saline (sham) or wear particles […] followed by daily injections of 200 μl of saline or CGS21680, as previously described. Animals were injected with Xenolight Rediject Bone Probe 680 (2 nmoles in 150 ul) followed by scanning in the IVIS apparatus. The intensity of staining is indicated by increasing yellow coloration. The fluorescence is detectable without change for 3-4 days and persists for as long as 2 weeks although all of these scans were taken on the day of injection. Shown are representative scans of ⅕ animals per group. The intensity of fluorescence was quantitated in a specific area of interest using software provided with the apparatus and the mean (±SEM) was calculated for 5 animals in each. In these experiments osteolysis will be monitored as porosity of the calvaria, measured by microCT, as has been previously described (Mediero, et al., Sci Transl Med, 2012. 4(135): 135-65). […] In addition, sema4D, netrin-1, GM-CSF, M-CSF, IP-10, MCP-1, IL-1, TNF, IL-6, IL-10, osteoprotegerin, osteocalcin and RANKL in supernates of cultured calvaria will be quantified by luminex assay, as has been previously described (Mediero, et al., Sci Transl Med, 2012. 4(135): 135-65). […]

[11] = tested on: NFκB p50/p105; assay: NFκB p50/p105 nuclear translocation in RAW264.7 cells with RANKL (Western blot); type: cell-based, murine; settings: CGS21680 1 μM; 30 min with RANKL; PKA-ERK1/2 mechanism
Procedure: RAW264.7 cells were infected with lentiviral constructs expressing shRNA for the catalytic subunit of PKA or a scrambled control. Cells were incubated for 30 min in the presence of RANKL alone, plus CGS21680 (1 μM, CGS) or plus CGS and ZM241385 (1 μM, C+Z) before lysis, separation of nuclear and cytosolic fractions and analysis by Western Blot. Shown are representative Western Blots. Results in the bar graphs are expressed as the means of four independent experiments analyzed densitometrically and normalized to actin. Results were analyzed by two way ANOVA and Bonferroni post-hoc testing.

[12] = tested on: semaphorin 4D; assay: Sema4D expression (Western blot, real time RT-PCR) in osteoclasts from primary murine bone marrow cells and RAW264.7 cells; type: cell-based; settings: CGS21680 1 μM; protein kinase A-dependent
Procedure: A.) Total cell lysates from primary murine bone marrow cells alone (basal) or after osteoclast differentiation in the presence of saline, CGS21680 (1 μM) with/without ZM241385 (1 μM) were subject to Western Blot detection of sema4D. Shown is a representative experiment of 3. B.) RAW264.7 osteoclasts, infected with a lentiviral vector expressing either shRNA for the catalytic subunit of PKA, scrambled shRNA, or primary murine bone marrow cells were cultured in the presence of saline (Black line) or CGS21680 (1 μM, Red Line) with/without ZM241385 (1 μM, Blue Line) for the time periods indicated before harvest of the cells, collection of RNA and real time RTPCR. Results represent the means (±SEM) of 5 separate determinations. C. Calvarium from sham or wear particle-treated wild type (C57B1/6) mice or adenosine A2A receptor knockout mice (C57B1/6 background) were stained for sema4D. D. Soft tissue from patients stained for semaphorin 4D (original magnification 800×). On the left is soft tissue obtained at the time of joint replacement (Representative of 14). On the right is tissue obtained at time of prosthesis revision (representative of 12).

SMILES	reversal of the A2A receptor agonist (CGS21680) reduction of osteoclast differentiation ([1]; WT cells with CGS21680 1 μM, netrin-1 250 ng/ml)	osteoprotegerin expression in calvarium [2]	Unc5b expression [3]	RANKL expression in calvarium [4]	RANKL mRNA in differentiating osteoblasts [5]	RANK expression in calvarium [6]	netrin-1 in the supernate of RAW264.7 cells [7]	number of sema4D-expressing cells in the calvaria [8]	osteoclast differentiation in WT cells ([1]; CGS21680 1 μM, RANKL and M-CSF, WT bone marrow cells)	netrin-1 expression in the inflammatory infiltrate [9]	new bone formation at sites of wear particle-induced osteolysis [10]	NFκB p50/p105 nuclear translocation [11]	semaphorin 4D expression by osteoclasts [12]
Nc1nc(NCCc2ccc(O)cc2)nc2nc(-c3ccco3)nn12 [ZM241385]	reversed	–	–	–	–	–	–	–	–	–	–	–	–
CCNC(=O)[C@H]1O[C@@H](n2cnc3c(N)nc(NCCc4ccc(CCC(=O)O)cc4)nc32)[C@H](O)[C@@H]1O [CGS21680]	–	increases osteoprotegerin expression	reduces Unc5b	diminishes RANK, RANKL	diminishes RANKL mRNA	diminishes RANK	reduces netrin-1	dramatically decreased; also recorded: diminishes recruitment of semaphorin 4D positive cells	reduces osteoclast differentiation	inhibits its expression	restored	inhibits	inhibits
